± gives the expanded uncertainty stated by the source.
Details: Liquid, Vibrating tube method

CCC(C)O (stereo not drawn) [butan-2-ol]
Details	mass density [kg/m3]
343.15 K, 47992 kPa	801 ± 1
343.15 K, 49990 kPa	802.3 ± 1
343.15 K, 52005 kPa	803.6 ± 1
343.15 K, 55047 kPa	805.7 ± 1
343.15 K, 57941 kPa	807.5 ± 1
343.15 K, 59985 kPa	808.8 ± 1
343.15 K, 61963 kPa	810 ± 1
343.15 K, 64974 kPa	811.9 ± 1
343.16 K, 2963 kPa	763.4 ± 0.8
343.16 K, 66132 kPa	812.5 ± 1
348.15 K, 99 kPa	755 ± 0.8
348.15 K, 293 kPa	755.2 ± 0.8
348.15 K, 632 kPa	755.6 ± 0.8
348.15 K, 926 kPa	756 ± 0.8
348.15 K, 1007 kPa	756 ± 0.8
348.15 K, 1961 kPa	757.1 ± 0.8
348.15 K, 2971 kPa	758.2 ± 0.8
348.15 K, 4887 kPa	760.3 ± 0.8
348.15 K, 6901 kPa	762.5 ± 0.8
348.15 K, 8976 kPa	764.6 ± 0.9
348.15 K, 10049 kPa	765.7 ± 0.9
348.15 K, 12159 kPa	767.9 ± 0.9
348.15 K, 15134 kPa	770.8 ± 0.9
348.15 K, 18029 kPa	773.4 ± 0.9
348.15 K, 20029 kPa	775.3 ± 0.9
348.15 K, 22105 kPa	777.1 ± 0.9
348.15 K, 24943 kPa	779.5 ± 0.9
348.15 K, 27937 kPa	782.1 ± 0.9
348.15 K, 29922 kPa	783.7 ± 0.9
348.15 K, 32051 kPa	785.4 ± 0.9
348.15 K, 33089 kPa	786.2 ± 0.9
348.15 K, 33156 kPa	786.2 ± 0.9
348.15 K, 34089 kPa	786.8 ± 0.9
348.15 K, 35121 kPa	787.6 ± 0.9
348.15 K, 37976 kPa	789.8 ± 0.9
348.15 K, 40028 kPa	791.3 ± 1
348.15 K, 42107 kPa	792.9 ± 1
348.15 K, 44933 kPa	794.9 ± 1
348.15 K, 48043 kPa	797.1 ± 1
348.15 K, 50077 kPa	798.4 ± 1
348.15 K, 52078 kPa	799.8 ± 1
348.15 K, 54947 kPa	801.7 ± 1
348.15 K, 58004 kPa	803.6 ± 1
348.15 K, 60105 kPa	805.1 ± 1
348.15 K, 62134 kPa	806.4 ± 1
348.15 K, 64952 kPa	808.1 ± 1
348.15 K, 66089 kPa	808.8 ± 1
353.15 K, 101 kPa	749.7 ± 0.8
353.15 K, 309 kPa	749.9 ± 0.8
353.15 K, 488 kPa	750.2 ± 0.8
353.15 K, 937 kPa	750.7 ± 0.8
353.15 K, 997 kPa	750.8 ± 0.8
353.15 K, 2036 kPa	752 ± 0.8
353.15 K, 5052 kPa	755.5 ± 0.8
353.15 K, 7035 kPa	757.6 ± 0.8
353.15 K, 8919 kPa	759.7 ± 0.9
353.15 K, 10172 kPa	761 ± 0.9
353.15 K, 14941 kPa	765.8 ± 0.9
353.15 K, 20147 kPa	770.7 ± 0.9
353.15 K, 22188 kPa	772.6 ± 0.9
353.15 K, 25053 kPa	775.1 ± 0.9
353.15 K, 28045 kPa	777.7 ± 0.9
353.15 K, 30122 kPa	779.4 ± 0.9
353.15 K, 31946 kPa	780.9 ± 0.9
353.15 K, 32790 kPa	781.6 ± 0.9
353.15 K, 32795 kPa	781.5 ± 0.9
353.15 K, 34025 kPa	782.5 ± 0.9
353.15 K, 35037 kPa	783.3 ± 0.9
353.15 K, 39961 kPa	787.1 ± 1
353.15 K, 42055 kPa	788.7 ± 1
353.15 K, 45025 kPa	790.9 ± 1
353.15 K, 47906 kPa	793 ± 1
353.15 K, 51988 kPa	795.8 ± 1
353.15 K, 58003 kPa	799.9 ± 1
353.15 K, 62118 kPa	802.6 ± 1
353.15 K, 65015 kPa	804.4 ± 1
353.15 K, 66227 kPa	805.2 ± 1
353.16 K, 2973 kPa	753.1 ± 0.8
353.16 K, 12072 kPa	762.9 ± 0.9
353.16 K, 18090 kPa	768.8 ± 0.9
353.16 K, 38061 kPa	785.7 ± 0.9
353.16 K, 49998 kPa	794.4 ± 1
353.16 K, 54972 kPa	797.7 ± 1
353.16 K, 60035 kPa	801.2 ± 1
358.15 K, 94 kPa	744.2 ± 0.8
358.15 K, 317 kPa	744.5 ± 0.8
358.15 K, 531 kPa	744.8 ± 0.8
358.15 K, 912 kPa	745.3 ± 0.8
358.15 K, 2002 kPa	746.6 ± 0.8
358.15 K, 6978 kPa	752.5 ± 0.8
358.15 K, 8996 kPa	754.7 ± 0.9
358.15 K, 14843 kPa	760.9 ± 0.9
358.15 K, 20099 kPa	766.2 ± 0.9
358.15 K, 22025 kPa	767.9 ± 0.9
358.15 K, 25009 kPa	770.7 ± 0.9
358.15 K, 33055 kPa	777.5 ± 0.9
358.15 K, 33103 kPa	777.7 ± 0.9
358.15 K, 34173 kPa	778.4 ± 0.9
358.15 K, 35154 kPa	779.2 ± 0.9
358.15 K, 38016 kPa	781.5 ± 1
358.15 K, 40036 kPa	783.1 ± 1
358.15 K, 42070 kPa	784.7 ± 1
358.15 K, 44944 kPa	786.8 ± 1
358.15 K, 47921 kPa	789 ± 1
358.15 K, 50038 kPa	790.5 ± 1
358.15 K, 52069 kPa	792 ± 1
358.15 K, 55065 kPa	794.1 ± 1
358.15 K, 58024 kPa	796.1 ± 1
358.15 K, 60060 kPa	797.4 ± 1
358.15 K, 62217 kPa	798.9 ± 1
358.15 K, 65051 kPa	800.7 ± 1
358.15 K, 66079 kPa	801.3 ± 1.1
358.16 K, 997 kPa	745.3 ± 0.8
358.16 K, 2956 kPa	747.8 ± 0.8
358.16 K, 4886 kPa	750.1 ± 0.8
358.16 K, 10124 kPa	755.9 ± 0.9
358.16 K, 11961 kPa	757.9 ± 0.9
358.16 K, 17993 kPa	764.1 ± 0.9
358.16 K, 27942 kPa	773.3 ± 0.9
358.16 K, 30089 kPa	775.1 ± 0.9
358.16 K, 32063 kPa	776.8 ± 0.9
363.15 K, 99 kPa	738.7 ± 0.8
363.15 K, 349 kPa	739 ± 0.8
363.15 K, 512 kPa	739.3 ± 0.8
363.15 K, 910 kPa	739.8 ± 0.8
363.15 K, 3038 kPa	742.5 ± 0.8
363.15 K, 12190 kPa	753.3 ± 0.9
363.15 K, 25101 kPa	766.2 ± 0.9
363.15 K, 30034 kPa	770.6 ± 0.9
363.15 K, 33002 kPa	773.1 ± 0.9
363.15 K, 33042 kPa	773.2 ± 0.9
363.15 K, 34072 kPa	774 ± 0.9
363.15 K, 40041 kPa	779 ± 1
363.15 K, 42237 kPa	780.7 ± 1
363.15 K, 44948 kPa	782.8 ± 1
363.15 K, 48033 kPa	785.1 ± 1
363.15 K, 50015 kPa	786.6 ± 1
363.15 K, 52088 kPa	788.1 ± 1
363.15 K, 55038 kPa	790.2 ± 1
363.15 K, 57996 kPa	792.2 ± 1
363.15 K, 60085 kPa	793.7 ± 1
363.15 K, 62081 kPa	795 ± 1
363.15 K, 65016 kPa	796.9 ± 1.1
363.15 K, 66010 kPa	797.6 ± 1.1
363.16 K, 1038 kPa	739.9 ± 0.8
363.16 K, 2013 kPa	741.2 ± 0.8
363.16 K, 5065 kPa	745 ± 0.8
363.16 K, 7039 kPa	747.4 ± 0.9
363.16 K, 8975 kPa	749.7 ± 0.9
363.16 K, 10001 kPa	750.8 ± 0.9
363.16 K, 14664 kPa	755.9 ± 0.9
363.16 K, 17691 kPa	759 ± 0.9
363.16 K, 20116 kPa	761.4 ± 0.9
363.16 K, 22089 kPa	763.4 ± 0.9
363.16 K, 28014 kPa	768.8 ± 0.9
363.16 K, 32089 kPa	772.4 ± 0.9
363.16 K, 35096 kPa	775 ± 0.9
363.16 K, 37960 kPa	777.4 ± 1

Source: the NIST ThermoML archive (doi:10.1021/acs.jced.5b00934)
